Values belong to the compound of their own block, whether it stands above or below them.
Columns and labels:
[1] = target: Mitogen-activated protein kinase 10 (Homo sapiens, UniProt P53779); test: Inhibition of human JNK3 incubated for 40 mins in presence of ATP and [gamma33P-ATP] by scintillation counting method
[2] = target: T1, Mitogen-activated protein kinase 8 (Homo sapiens, UniProt P45983); test: Inhibition of human JNK1 incubated for 40 mins in presence of ATP and [gamma33P-ATP] by scintillation counting method
[3] = target: Mitogen-activated protein kinase 9 (Homo sapiens, UniProt P45984); test: Inhibition of human JNK2 incubated for 40 mins in presence of ATP and [gamma33P-ATP] by scintillation counting method
[4] = Oral bioavailability in Sprague-Dawley rat at 15 mg/kg measured upto 24 hrs by UPLC analysis; type: ADME, organism-based; details: in vivo
[5] = Half life in Sprague-Dawley rat at 15 mg/kg, po measured upto 24 hrs by UPLC analysis; type: ADME, organism-based; details: in vivo
[6] = Half life in Sprague-Dawley rat at 1 mg/kg, iv measured upto 24 hrs by UPLC analysis; type: ADME, organism-based; details: in vivo
[7] = Tmax in Sprague-Dawley rat at 15 mg/kg, po measured upto 24 hrs by UPLC analysis; type: ADME, organism-based; details: in vivo
[8] = Cmax in Sprague-Dawley rat at 15 mg/kg, po measured upto 24 hrs by UPLC analysis; type: ADME, organism-based; design: dose 15 mg/kg, time < 24 hrs, route po; details: in vivo
[9] = AUC in Sprague-Dawley rat at 15 mg/kg, po measured upto 24 hrs by UPLC analysis; type: ADME, organism-based; design: dose 15 mg/kg, time < 24 hrs, route po; details: in vivo
[10] = AUC in Sprague-Dawley rat at 1 mg/kg, iv measured upto 24 hrs by UPLC analysis; type: ADME, organism-based; design: dose 1 mg/kg, time < 24 hrs, route iv; details: in vivo
[11] = system: Cortical neurone; test: Neuroprotective activity against Amyloid beta (1 to 42)-induced toxicity in rat cortical neuron assessed as cell viability at 20 uM measured after 24 hrs by MTT assay; type: functional; details: read-out: Activity
[12] = system: Cortical neurone; test: Neuroprotective activity against Amyloid beta (1 to 42)-induced toxicity in rat cortical neuron assessed as cell viability at 20 uM measured after 48 hrs by MTT assay; type: functional; details: read-out: Activity
[13] = target: T1, Mitogen-activated protein kinase 8; test: Inhibition of JNK1 (unknown origin) assessed as incorporation of 33P-ATP

Sequence of Mitogen-activated protein kinase 10 (P53779 whole entry): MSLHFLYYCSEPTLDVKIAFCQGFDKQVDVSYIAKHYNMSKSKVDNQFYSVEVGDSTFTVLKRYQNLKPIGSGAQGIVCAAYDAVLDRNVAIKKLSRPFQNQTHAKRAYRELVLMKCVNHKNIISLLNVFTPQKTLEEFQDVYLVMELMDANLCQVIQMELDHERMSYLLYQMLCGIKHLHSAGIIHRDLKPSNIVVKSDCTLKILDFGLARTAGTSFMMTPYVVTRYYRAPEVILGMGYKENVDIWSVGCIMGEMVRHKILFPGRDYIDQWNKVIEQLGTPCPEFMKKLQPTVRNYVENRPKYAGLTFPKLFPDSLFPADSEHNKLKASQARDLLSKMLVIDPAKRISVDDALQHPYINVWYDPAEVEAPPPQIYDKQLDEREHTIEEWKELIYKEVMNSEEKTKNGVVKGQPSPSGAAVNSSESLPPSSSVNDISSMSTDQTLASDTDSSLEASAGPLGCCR
Sequence of Mitogen-activated protein kinase 9 (P45984 whole entry): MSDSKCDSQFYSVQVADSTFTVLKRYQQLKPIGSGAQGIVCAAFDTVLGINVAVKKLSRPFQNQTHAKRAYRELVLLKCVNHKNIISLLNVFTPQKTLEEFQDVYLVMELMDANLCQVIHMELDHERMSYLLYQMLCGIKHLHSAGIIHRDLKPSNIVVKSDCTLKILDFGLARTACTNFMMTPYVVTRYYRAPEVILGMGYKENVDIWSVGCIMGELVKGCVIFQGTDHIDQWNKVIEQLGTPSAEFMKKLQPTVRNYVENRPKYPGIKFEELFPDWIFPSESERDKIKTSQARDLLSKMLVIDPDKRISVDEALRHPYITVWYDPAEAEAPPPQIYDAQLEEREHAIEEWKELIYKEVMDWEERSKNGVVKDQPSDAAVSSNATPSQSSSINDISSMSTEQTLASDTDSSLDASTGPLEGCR
T1 sequence (P45983 whole entry): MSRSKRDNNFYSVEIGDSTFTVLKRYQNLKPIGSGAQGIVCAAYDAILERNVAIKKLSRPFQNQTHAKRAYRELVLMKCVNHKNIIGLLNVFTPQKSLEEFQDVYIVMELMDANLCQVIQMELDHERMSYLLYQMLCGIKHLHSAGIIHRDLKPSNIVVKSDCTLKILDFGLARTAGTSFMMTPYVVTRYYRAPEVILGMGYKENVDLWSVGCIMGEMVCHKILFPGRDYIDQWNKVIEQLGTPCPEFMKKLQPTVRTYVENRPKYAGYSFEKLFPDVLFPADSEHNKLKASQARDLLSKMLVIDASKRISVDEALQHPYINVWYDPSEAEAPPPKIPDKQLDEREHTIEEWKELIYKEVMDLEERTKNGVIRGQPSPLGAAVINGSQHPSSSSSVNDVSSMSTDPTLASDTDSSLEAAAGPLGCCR

IC50 ([1]; read-out: IC50): > 10000 nM
Structure (SMILES): C[C@@H](O)CNc1nccc(-n2c(CC#N)cnc2-c2ccc3ccccc3n2)n1

IC50 ([1]; read-out: IC50): > 10000 nM
Structure (SMILES): N#CCc1cnc(C2=CC3OCOC3C=C2)n1-c1ccnc(N[C@H]2CCCNC2)n1 (stereo not given in full)

IC50 ([1]; read-out: IC50): 142 nM
Structure (SMILES): N#CCc1cnc(-c2ccc3ccccc3c2)n1-c1ccnc(NC2CCCCC2)n1

IC50 ([1]; read-out: IC50): 6.2 nM
IC50 [2]: 359 nM
IC50 [3]: 268 nM
Structure (SMILES): N#CCc1cnc(-c2ccc3occc3c2)n1-c1ccnc(N[C@H]2CCCN(C(=O)C3CC3)C2)n1

bioavailability [4]: 6.2%
half-life [5]: 105 min
half-life [6]: 12.6 min
Tmax [7]: 40.2 min
Cmax [8]: 406 ng/mL
AUC at 24 h [9]: 839 ng·h/mL
AUC at 24 h [10]: 902 ng·h/mL
IC50 ([1]; read-out: IC50): 2 nM
IC50 [2]: 312 nM
IC50 [3]: 44.2 nM
Structure (SMILES): N#CCc1cnc(-c2ccc(Cl)c(Cl)c2)n1-c1ccnc(N[C@H]2CCCN(C(=O)C3CC3)C2)n1
viability at 20 µM [11]: 72.4%
viability at 20 µM [12]: 47%

IC50 ([1]; read-out: IC50): 5 nM
IC50 [2]: 211 nM
IC50 [3]: 66.1 nM
Structure (SMILES): N#CCc1cnc(-c2ccc3ccccc3c2)n1-c1ccnc(N[C@@H]2CCCN(C(=O)C3CC3)C2)n1

IC50 ([1]; read-out: IC50): 4960 nM
Structure (SMILES): C[C@@H](O)CNc1nccc(-n2c(CC#N)cnc2-c2ccc3ccccc3c2)n1

IC50 ([1]; read-out: IC50): 6270 nM
Structure (SMILES): N#CCc1cnc(-c2ccc3c(c2)OCCO3)n1-c1ccnc(NC2CCCCC2)n1

IC50 ([1]; read-out: IC50): > 10000 nM
Structure (SMILES): N#CCc1cnc(C2=CC3OCCOC3C=C2)n1-c1ccnc(N[C@H]2CCCNC2)n1 (stereo not given in full)

IC50 [13]: > 3000 nM
Structure (SMILES): NC(=O)N1Cc2nc(-c3ccc(Cl)c(Cl)c3)n(-c3ccnc(N[C@@H]4CCN(C(=O)C5CC5)C4)n3)c2C1

IC50 ([1]; read-out: IC50): 8 nM
IC50 [2]: 444 nM
IC50 [3]: 81 nM
Structure (SMILES): CC(C)(C)C(=O)N1CCC[C@H](Nc2nccc(-n3c(CC#N)cnc3-c3ccc(Cl)c(Cl)c3)n2)C1

IC50 ([1]; read-out: IC50): 55 nM
Structure (SMILES): N#CCc1cnc(C2=CC3OCOC3C=C2)n1-c1ccnc(N[C@H]2CCCN(C(=O)C3CC3)C2)n1 (stereo not given in full)

IC50 ([1]; read-out: IC50): 9840 nM
Structure (SMILES): C[C@@H](O)CNc1nccc(-n2c(CC#N)cnc2-c2ccc3c(c2)OCCO3)n1

IC50 ([1]; read-out: IC50): 396 nM
Structure (SMILES): N#CCc1cnc(-c2ccc3ccccc3n2)n1-c1ccnc(N[C@H]2CCCN(C(=O)C3CC3)C2)n1

IC50 ([1]; read-out: IC50): 5.3 nM
IC50 [2]: 513 nM
IC50 [3]: 55.8 nM
Structure (SMILES): N#CCc1cnc(-c2ccc(Cl)c(Cl)c2)n1-c1ccnc(N[C@H]2CCCN(C(=O)NC3CC3)C2)n1

IC50 [1]: Not Active
Structure (SMILES): N#CCc1cnc(-c2ccc(F)c(C(F)(F)F)c2)n1-c1ccnc(N[C@H]2CCCNC2)n1

IC50 ([1]; read-out: IC50): 321 nM
Structure (SMILES): N#CCc1cnc(-c2ccc3ccccc3c2)n1-c1ccnc(NC2CCOCC2)n1

IC50 ([1]; read-out: IC50): 611 nM
Structure (SMILES): N#CCc1cnc(-c2ccc(Cl)c(Cl)c2)n1-c1ccnc(NC2CCCCC2)n1

IC50 ([1]; read-out: IC50): > 10000 nM
Structure (SMILES): N#CCc1cnc(-c2ccc3ccccc3n2)n1-c1ccnc(NC2CCCCC2)n1

IC50 ([1]; read-out: IC50): 13300 nM
Structure (SMILES): N#CCc1cnc(-c2ccc(Cl)c(Cl)c2)n1-c1ccnc(N[C@H]2CCCNC2)n1

IC50 ([1]; read-out: IC50): > 10000 nM
Structure (SMILES): N#CCc1cnc(-c2ccc3ccccc3c2)n1-c1ccnc(N[C@H]2CCCNC2)n1
